Results as given in patent publication US20080058213A1, “Benzoxazole Compounds” (priority 2004, published 2008).

Experiments:
[1] = system: barnyard grass (Echinochloa crusgalli); assay: Weed control test for paddy field (Test Example 1): barnyard grass; assay type: in vivo; details: paddy pots, treated at 1.0 leaf stage of barnyard grass, examined after 3 weeks
From the text: (§1) Paddy field soil was filled in 1/10,000 are pots, kneaded with adequate amounts of water and chemical fertilizer, seeded with barnyard grass (Echinochloa crusgalli), Monochoria (Monochoria vaginalis), Japanese bulrush (Scirpus juncoides) and flat sedge (Cyperus serotinus), and further transplanted with 2.0 leaf stage of rice plant. The pots were maintained under the water-filled condition to a depth of 3 cm.
(§2) Wettable powders containing the compounds (1) as identified in Table 1, which were formulated following Production Example 2, were diluted with adequate amount of water and applied to the pots dropwise with pippet at a prescribed dose of the active ingredients per are, at 1.0 leaf stage of the barnyard grass.
(§3) After placing the pots in a glasshouse which was controlled at an average temperature of 25° C. for 3 weeks, herbicidal effect was examined.
(§4) Evaluation of the herbicidal effect is shown in the following six grades, by comparing the condition of untreated control and growth inhibition (%): • 0: 0%-less than 20% • 1: 20%-less than 40% • 2: 40%-less than 60% • 3: 60%-less than 80% • 4: 80%-less than 100% • 5: 100%.

[2] = system: Monochoria (Monochoria vaginalis); assay: Weed control test for paddy field (Test Example 1): Monochoria; assay type: in vivo; details: paddy pots, treated at 1.0 leaf stage of barnyard grass, examined after 3 weeks
From the text: as §1, §2, §3, §4

[3] = system: Japanese bulrush (Scirpus juncoides); assay: Weed control test for paddy field (Test Example 1): Japanese bulrush; assay type: in vivo; details: paddy pots, treated at 1.0 leaf stage of barnyard grass, examined after 3 weeks
From the text: as §1, §2, §3, §4

[4] = system: flat sedge (Cyperus serotinus); assay: Weed control test for paddy field (Test Example 1): flat sedge; assay type: in vivo; details: paddy pots, treated at 1.0 leaf stage of barnyard grass, examined after 3 weeks
From the text: as §1, §2, §3, §4

rice plant = assay: Weed control test for paddy field (Test Example 1): phytotoxicity to rice plant; assay type: in vivo; details: paddy pots, treated at 1.0 leaf stage of barnyard grass, examined after 3 weeks
From the text: as §1, §2, §3
Evaluation of phytotoxicity is shown in the following six grades, as compared with the condition of untreated control: • 0: normal growth • 1: little damaged • 2: low damaged • 3: medium damaged • 4: serious damaged • 5: complete killed.

[5] = system: southern crabgrass (Digitaria ciliaris); assay: Soil treatment test for upland field (Test Example 2): southern crabgrass; assay type: in vivo; details: soil treatment before germination, examined after 3 weeks
In short: (§5)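 Grades 0–5 reflect percent growth inhibition compared with untreated pots (20% steps; grade 5 = complete). Treatment is a pre-germination surface soil spray of wettable powder in water, 15 liters per are, followed by 3 weeks' glasshouse growth at about 25° C.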

[6] = system: common lambsquaters (Chenopodium album); assay: Soil treatment test for upland field (Test Example 2): common lambsquaters; assay type: in vivo; details: soil treatment before germination, examined after 3 weeks
In short: as §5

[7] = system: slender amaranth (Amaranthus viridis); assay: Soil treatment test for upland field (Test Example 2): slender amaranth; assay type: in vivo; details: soil treatment before germination, examined after 3 weeks
In short: as §5

[8] = system: common purslane (Portulaca oleracea); assay: Soil treatment test for upland field (Test Example 2): common purslane; assay type: in vivo; details: soil treatment before germination, examined after 3 weeks
In short: as §5

[9] = system: velvetleaf (Abutilon theophrasti); assay: Soil treatment test for upland field (Test Example 2): velvetleaf; assay type: in vivo; details: soil treatment before germination, examined after 3 weeks
In short: as §5

wheat [10] = assay: Soil treatment test for upland field (Test Example 2): phytotoxicity to wheat; assay type: in vivo; details: soil treatment before germination, examined after 3 weeks
corn [11] = assay: Soil treatment test for upland field (Test Example 2): phytotoxicity to corn; assay type: in vivo; details: soil treatment before germination, examined after 3 weeks
soybean [12] = assay: Soil treatment test for upland field (Test Example 2): phytotoxicity to soybean; assay type: in vivo; details: soil treatment before germination, examined after 3 weeks
southern crabgrass = assay: Foliage treatment test for upland field (Test Example 3): southern crabgrass; assay type: in vivo; details: foliage treatment at 1.0-2.0 leaf stage of southern crabgrass, examined after 3 weeks
In short: (§6)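 Weeds were sown in compost-soil pots in a 25° C glasshouse. Wettable-powder formulations, diluted in water to the prescribed active-ingredient dose, were sprayed at 15 liters per are when southern crabgrass reached the 1.0-2.0 leaf stage. After 3 weeks, growth inhibition versus untreated control was scored 0 (under 20%) to 5 (100%).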

common lambsquaters = assay: Foliage treatment test for upland field (Test Example 3): common lambsquaters; assay type: in vivo; details: foliage treatment at 1.0-2.0 leaf stage of southern crabgrass, examined after 3 weeks
In short: as §6

slender amaranth = assay: Foliage treatment test for upland field (Test Example 3): slender amaranth; assay type: in vivo; details: foliage treatment at 1.0-2.0 leaf stage of southern crabgrass, examined after 3 weeks
In short: as §6

common purslane = assay: Foliage treatment test for upland field (Test Example 3): common purslane; assay type: in vivo; details: foliage treatment at 1.0-2.0 leaf stage of southern crabgrass, examined after 3 weeks
In short: as §6

velvetleaf = assay: Foliage treatment test for upland field (Test Example 3): velvetleaf; assay type: in vivo; details: foliage treatment at 1.0-2.0 leaf stage of southern crabgrass, examined after 3 weeks
In short: as §6

wheat [13] = assay: Foliage treatment test for upland field (Test Example 3): phytotoxicity to wheat; assay type: in vivo; details: foliage treatment at 1.0-2.0 leaf stage of southern crabgrass, examined after 3 weeks
In short: (§7)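 Crops sown in compost-mixed soil pots, kept in a glasshouse at 25° C. average. Effect scored after 3 weeks versus untreated control on a 0–5 scale (0 normal growth, 5 complete kill).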

corn [14] = assay: Foliage treatment test for upland field (Test Example 3): phytotoxicity to corn; assay type: in vivo; details: foliage treatment at 1.0-2.0 leaf stage of southern crabgrass, examined after 3 weeks
In short: as §7

soybean [15] = assay: Foliage treatment test for upland field (Test Example 3): phytotoxicity to soybean; assay type: in vivo; details: foliage treatment at 1.0-2.0 leaf stage of southern crabgrass, examined after 3 weeks
In short: as §7

FC(F)(F)COC/C(=C\c1cccc(C(F)(F)F)c1)c1nc2cc(C(F)(F)F)ccc2o1 [Compound 85, (E)-2-(5-trifluoromethylbenzoxazol-2-yl)-1-(3-trifluoromethylphenyl)-3-(2,2,2-trifluoroethoxy)propene]
1: Phytotoxicity wheat (wheat [13]; dose 2.5 g ai/a) | Phytotoxicity wheat (wheat [13]; dose 5 g ai/a) | Phytotoxicity corn (corn [14]; dose 2.5 g ai/a) | Phytotoxicity corn (corn [14]; dose 5 g ai/a)
86 to 89 °C: melting point
2: Phytotoxicity soybean (soybean [15]; dose 2.5 g ai/a) | Phytotoxicity soybean (soybean [15]; dose 5 g ai/a)
0: Phytotoxicity Rice plant (rice plant; dose 2.5 g ai/a) | Phytotoxicity Rice plant (rice plant; dose 5 g ai/a) | Phytotoxicity wheat (wheat [10]; dose 2.5 g ai/a) | Phytotoxicity wheat (wheat [10]; dose 5 g ai/a) | Phytotoxicity corn (corn [11]; dose 2.5 g ai/a) | Phytotoxicity corn (corn [11]; dose 5 g ai/a) | Phytotoxicity soybean (soybean [12]; dose 2.5 g ai/a) | Phytotoxicity soybean (soybean [12]; dose 5 g ai/a)
5 (100%): Herbicidal Effect Barnyard grass ([1]; dose 5 g ai/a) | Herbicidal Effect Monochoria vaginalis ([2]; dose 2.5 g ai/a) | Herbicidal Effect Monochoria vaginalis ([2]; dose 5 g ai/a) | Herbicidal Effect Japanese bulrush ([3]; dose 5 g ai/a) | Herbicidal Effect southern crabgrass ([5]; dose 2.5 g ai/a) | Herbicidal Effect southern crabgrass ([5]; dose 5 g ai/a) | Herbicidal Effect common lambsquaters ([6]; dose 2.5 g ai/a) | Herbicidal Effect common lambsquaters ([6]; dose 5 g ai/a) | Herbicidal Effect slender amaranth ([7]; dose 2.5 g ai/a) | Herbicidal Effect slender amaranth ([7]; dose 5 g ai/a) | Herbicidal Effect common purslane ([8]; dose 2.5 g ai/a) | Herbicidal Effect common purslane ([8]; dose 5 g ai/a) | Herbicidal Effect velvetleaf ([9]; dose 2.5 g ai/a) | Herbicidal Effect velvetleaf ([9]; dose 5 g ai/a) | Herbicidal Effect southern crabgrass (southern crabgrass; dose 2.5 g ai/a) | Herbicidal Effect southern crabgrass (southern crabgrass; dose 5 g ai/a) | Herbicidal Effect Common lambsquatters (common lambsquaters; dose 2.5 g ai/a) | Herbicidal Effect Common lambsquatters (common lambsquaters; dose 5 g ai/a) | Herbicidal Effect slender amaranth (slender amaranth; dose 2.5 g ai/a) | Herbicidal Effect slender amaranth (slender amaranth; dose 5 g ai/a) | Herbicidal Effect common purslane (common purslane; dose 2.5 g ai/a) | Herbicidal Effect common purslane (common purslane; dose 5 g ai/a) | Herbicidal Effect velvetleaf (velvetleaf; dose 2.5 g ai/a) | Herbicidal Effect velvetleaf (velvetleaf; dose 5 g ai/a)
3 (60%-less than 80%): Herbicidal Effect Flat sedge ([4]; dose 2.5 g ai/a)
4 (80%-less than 100%): Herbicidal Effect Barnyard grass ([1]; dose 2.5 g ai/a) | Herbicidal Effect Japanese bulrush ([3]; dose 2.5 g ai/a) | Herbicidal Effect Flat sedge ([4]; dose 5 g ai/a)

COCC(=Cc1ccc(F)c(C(F)(F)F)c1)c1nc2cc(F)c(F)cc2o1 [Compound 126]
2 (40%-less than 60%): Herbicidal Effect Flat sedge ([4]; dose 2.5 g ai/a)
1: Phytotoxicity wheat (wheat [13]; dose 5 g ai/a) | Phytotoxicity corn (corn [14]; dose 5 g ai/a) | Phytotoxicity soybean (soybean [15]; dose 2.5 g ai/a) | Phytotoxicity soybean (soybean [15]; dose 5 g ai/a)
3 (60%-less than 80%): Herbicidal Effect Japanese bulrush ([3]; dose 2.5 g ai/a) | Herbicidal Effect Flat sedge ([4]; dose 5 g ai/a) | Herbicidal Effect velvetleaf ([9]; dose 2.5 g ai/a) | Herbicidal Effect velvetleaf (velvetleaf; dose 2.5 g ai/a)
0: Phytotoxicity Rice plant (rice plant; dose 2.5 g ai/a) | Phytotoxicity Rice plant (rice plant; dose 5 g ai/a) | Phytotoxicity wheat (wheat [10]; dose 2.5 g ai/a) | Phytotoxicity wheat (wheat [10]; dose 5 g ai/a) | Phytotoxicity corn (corn [11]; dose 2.5 g ai/a) | Phytotoxicity corn (corn [11]; dose 5 g ai/a) | Phytotoxicity soybean (soybean [12]; dose 2.5 g ai/a) | Phytotoxicity soybean (soybean [12]; dose 5 g ai/a) | Phytotoxicity wheat (wheat [13]; dose 2.5 g ai/a) | Phytotoxicity corn (corn [14]; dose 2.5 g ai/a)
4 (80%-less than 100%): Herbicidal Effect Japanese bulrush ([3]; dose 5 g ai/a) | Herbicidal Effect southern crabgrass ([5]; dose 2.5 g ai/a) | Herbicidal Effect velvetleaf ([9]; dose 5 g ai/a) | Herbicidal Effect southern crabgrass (southern crabgrass; dose 2.5 g ai/a) | Herbicidal Effect velvetleaf (velvetleaf; dose 5 g ai/a)
5 (100%): Herbicidal Effect Barnyard grass ([1]; dose 2.5 g ai/a) | Herbicidal Effect Barnyard grass ([1]; dose 5 g ai/a) | Herbicidal Effect Monochoria vaginalis ([2]; dose 2.5 g ai/a) | Herbicidal Effect Monochoria vaginalis ([2]; dose 5 g ai/a) | Herbicidal Effect southern crabgrass ([5]; dose 5 g ai/a) | Herbicidal Effect common lambsquaters ([6]; dose 2.5 g ai/a) | Herbicidal Effect common lambsquaters ([6]; dose 5 g ai/a) | Herbicidal Effect slender amaranth ([7]; dose 2.5 g ai/a) | Herbicidal Effect slender amaranth ([7]; dose 5 g ai/a) | Herbicidal Effect common purslane ([8]; dose 2.5 g ai/a) | Herbicidal Effect common purslane ([8]; dose 5 g ai/a) | Herbicidal Effect southern crabgrass (southern crabgrass; dose 5 g ai/a) | Herbicidal Effect Common lambsquatters (common lambsquaters; dose 2.5 g ai/a) | Herbicidal Effect Common lambsquatters (common lambsquaters; dose 5 g ai/a) | Herbicidal Effect slender amaranth (slender amaranth; dose 2.5 g ai/a) | Herbicidal Effect slender amaranth (slender amaranth; dose 5 g ai/a) | Herbicidal Effect common purslane (common purslane; dose 2.5 g ai/a) | Herbicidal Effect common purslane (common purslane; dose 5 g ai/a)
